Measurements: patent US7402579B2, “Quinobenzoxazine analogs and compositions” (Cylene Pharmaceuticals, Inc., priority 2005, dated 2008)
Where two headings read alike, the source gives them in different places.

Columns and labels:
HCT-116 cells = test: MTS cell proliferation/cytotoxicity assay, HCT-116; format: cell-based; conditions: Homo sapiens
Description: (§1) The antiproliferative effects of the present compounds may be tested using a cell proliferation and/or cytotoxicity assay, following protocols described below.
(§2) MTS assays. Antiproliferative effects of anticancer drugs are tested by the CellTiter 96 AQueous assay (Promega, Wis.), which is a colorimetric assay for determining the number of viable cells. (See, e.g., Wang, L., et al., Methods Cell Sci (1996) 18:249-255).
(§3) Generally, cells (2,000 to 5,000 cells/well) are seeded on 96 well flat bottom plates (Corning, N.Y.) in 100 μl of culture medium without any anticancer drug on day 0, and the culture medium is exchanged for that contained anticancer drugs at various concentrations on day 1. After incubation for 3 days under normal growth conditions (on day 4), the monolayers are washed once in PBS, and the medium is switched to 100 μl of PBS in each of the 96 well plate. After mixing MTS and PMS at the ratio of 20:1, 20 μl of MTS/PMS solution is added to each of the 96 well plate and incubated for 4 hours in a humidified atmosphere of 5% CO2 at 37° C. The absorbance was read at 490 nm using FLUOstar Galaxy 96 well plate reader (BMG Labtechnologies, Germany).

HeLa cells = test: MTS cell proliferation/cytotoxicity assay, Hela; format: cell-based; conditions: Homo sapiens
Description: as §1
Cell culture. Human cervical epithelial cells (HeLa cells) are obtained from American Type Culture Collection (Manassas, Va.). Cells are grown in Eagle's minimum essential medium (MEM, Hyclone, Utah) supplemented with 2 mM Glutamine, 0.1 mM nonessential amino acid, 1 mM Na Pyruvate, 1.5 g/L NaHCO3, 50 mg/L gentamicin, and 10% fetal bovine serum (Hyclone, USA) in a humidified atmosphere of 5% CO2 at 37° C.
as §2, §3

[1] = molecular target: c-Myc template DNA (quadruplex); test: Quadruplex binding assay (STOP assay, Taq polymerase arrest, capillary electrophoresis); format: biochemical; conditions: concentration at which 50% of the DNA was arrested
Description: Generally, a 5′-fluorescent-labeled (FAM) primer (P45, 15 nM) was mixed with template DNA (15 nM) in a Tris-HCL buffer (15 mM Tris, pH 7.5) containing 10 mM MgCl2, 0.1 mM EDTA and 0.1 mM mixed deoxynucleotide triphosphates (dNTP's). In one example, the FAM-P45 primer (5′-6FAM-[…] CAATT-3′) (SEQ ID NO. 17) and the c-Myc template DNA (5′-[…] […] […]-3′) (SEQ ID NO. 18) were synthesized and HPLC purified by Applied Biosystems. The mixture was denatured at 95° C. for 5 minutes and, after cooling down to room temperature, was incubated at 37° C. for 15 minutes.
After cooling down to room temperature, 1 mM […] and the test compound (various concentrations) were added and the mixture incubated for 15 minutes at room temperature. The primer extension was performed by adding 10 mM KCl and Taq DNA Polymerase (2.5 U/reaction, Promega) and incubating at 70° C. for 30 minutes. The reaction was stopped by adding 1 μl of the reaction mixture to 10 μl Hi-Di Formamide mixed and 0.25 μl LIZ120 size standard. Hi-Di Formamide and LIZ120 size standard were purchased from Applied Biosystems. The partially extended quadruplex arrest product was between 61 or 62 bases long and the full-length extended product was 99 bases long. The products were separated and analyzed using capillary electrophoresis. Capillary electrophoresis was performed using an ABI PRISM 3100-Avant Genetic Analyzer. The assay was performed using compounds described above, and μM concentrations reported in Table 1 (Tables 1A-1F) are concentrations at which 50% of the DNA was arrested in the assay (i.e., the ratio of shorter partially extended DNA (arrested DNA) to full-length extended DNA is 1:1).
Stop Assays. Stop assays are high throughput, first-pass screens for detecting drugs that bind to and stabilize the target G-quadruplex. Generally, DNA template oligonucleotide is created, which contains the nucleotide sequence of the “target” quadruplex against which drug screening is desired. A fluorescently labeled primer DNA is then annealed to the 3′ end of the template DNA. A DNA polymerase such as Taq polymerase is then introduced to synthesize a complementary strand of DNA by extending from the fluorescently labeled primer. When the progress of the Taq polymerase is unhindered, it synthesizes a full-length copy of the template. […] If, however, the test drug selectively binds to and stabilizes the quadruplex, the progress of polymerase arrests only at the quadruplex, and a characteristic “Stop Product” is synthesized.
These products are visualized by capillary electrophoresis.

IC50 ([1]; Table 1B, read-out: STOP IC50)	SMILES	IC50 (HCT-116 cells; Table 1A)	IC50 (HeLa cells; Table 1A)	IC50 (HCT-116 cells; Table 1B)	IC50 (HeLa cells; Table 1B)	also measured
–	CN1CCCC1CCNC(=O)c1cn2c3c(c(N4CCC(c5cnccn5)C4)c(F)cc3c1=O)Oc1ccc(C(N)=O)cc1-2 (stereo not drawn)	3.6 µM	11 µM	–	–	–
–	N#Cc1ccc2c(c1)-n1cc(C(=O)NCCN3CCCC3)c(=O)c3cc(F)c(N4CCC(c5cnccn5)C4)c(c31)O2 (stereo not drawn)	0.031 µM	0.21 µM	–	–	IC50 ([1]; Table 1A, read-out: STOP IC50): 5 µM
3.8 µM	CN1CCCC1CCNC(=O)c1cn2c3c(cc(SCc4ccccn4)cc3c1=O)Oc1cc3ccccc3cc1-2 (stereo not drawn)	–	–	3.1 µM	2.5 µM	–
–	CN1CCCC1CCNC(=O)c1cn2c3c(c(N4CCC(c5cnccn5)C4)c(F)cc3c1=O)Oc1ccccc1-2 (stereo not drawn) [Example 81]	–	–	–	–	IC50 ([1]; Table 1E, read-out: STOP Data): 5.7 µM
3.4 µM	CN1CCCC1CCNC(=O)c1cn2c3c(cc(SCCc4cnccn4)cc3c1=O)Oc1cc3ccccc3cc1-2 (stereo not drawn)	–	–	10 µM	1.8 µM	–
–	CN1CCCC1CCNC(=O)c1cn2c3c(c(N4CCC(c5cnccn5)C4)c(F)cc3c1=O)Oc1ccc(C#N)cc1-2 (stereo not drawn)	0.4 µM	1.2 µM	–	–	–
10 µM	CN1CCCC1CCNC(=O)c1cn2c3c(cc(SCCc4cnccn4)cc3c1=O)Oc1ccccc1-2 (stereo not drawn)	–	–	3.8 µM	3 µM	–
2.9 µM	CN1CCCC1CCNC(=O)c1cn2c3c(cc(SCc4ccncc4)cc3c1=O)Oc1cc3ccccc3cc1-2 (stereo not drawn)	–	–	4.2 µM	4.1 µM	–
5.4 µM	Cc1cc(CSc2cc3c4c(c2)c(=O)c(C(=O)NCCC2CCCN2C)cn4-c2cc4ccccc4cc2O3)no1 (stereo not drawn)	–	–	2.9 µM	2.3 µM	–
–	CC(=O)N1CCN(c2cc3c(=O)c(C(=O)NCCN4CCCC4)cn4c3c(c2F)Oc2cc(Cl)ccc2-4)CC1	–	–	–	–	IC50 ([1]; Table 1C, read-out: STOP IC50): 6 µM
–	CC1CCN(C(=O)c2cn3c4c(c(NCCN5CCOCC5)c(F)cc4c2=O)Oc2ccccc2-3)CC1 [Example 55]	–	–	–	–	IC50 ([1]; Table 1E, read-out: STOP Data): > 15 µM
14 µM	CN1CCCC1CCNC(=O)c1cn2c3c(cc(SCc4ccccc4)cc3c1=O)Oc1cc3ccccc3cc1-2 (stereo not drawn)	–	–	3.9 µM	5.2 µM	–
–	CC(C)N1CCN(c2c(F)cc3c(=O)c(C(=O)NCCN4CCCC4)cn4c3c2Oc2ccc(C#N)cc2-4)CC1	0.03 µM	0.04 µM	–	–	IC50 ([1]; Table 1A, read-out: STOP IC50): 10 µM
–	N#Cc1ccc2c(c1)-n1cc(C(=O)NCCN3CCOCC3)c(=O)c3cc(F)c(N4CCC(N)C4)c(c31)O2 (stereo not drawn)	0.4 µM	0.68 µM	–	–	–
3.9 µM	O=C(NCCN1CCCC1)c1cn2c3c(cc(SCCc4cnccn4)cc3c1=O)Oc1cc3ccccc3cc1-2	–	–	2.8 µM	0.28 µM	–
